Test results taken from patent US8084394B2, “Method for the control of harmful micro-organisms and insects in crop protection with means of dipole-electrical air-jet spray-technology, ozonated water and UV-C irradiation” (priority 2003, dated 2011).

Experiments:
[1] = stability (half-life) of ozone as gas and in water; assay type: physicochemical; settings: new injection technique with inorganic wetting agent; threefold
Method: Ozone is a highly unstable molecule in gaseous form which disintegrated in a short period of time (half-life time ca. 20 minutes) again in oxygen.
With this new injection technique of the extensive mixing of ozone with the spray waters and with the combination of an inorganic wetting agent, the ozone concentration in the dissolved gas bubbles can be up to 17% and has a threefold capacity in the water (up to 1 hour) the fact that ozone gas is transforming to oxygen.
The half-life time of Ozone in water is approximately 2 minutes, in other words the ozone concentration in water is reduced by half every 2 minutes.

[2] = cited from earlier work
microorganisms = settings: cited from earlier work
[3] = cited from earlier work; remark: listed apart in the source

O=[O+][O-] [Ozone]
capacity (persistence) of ozone in the water [1]: up to 1 hour | half-life time ([2]; gaseous form, disintegration to oxygen): ca. 20 minutes | half-life time of Ozone in water ([2]; in water): approximately 2 minutes | speed of destruction of microorganisms relative to chlorine (microorganisms; faster than chlorine): 3125 times | reactivity relative to chlorine (microorganisms; more reactive than chlorine): 51 times | exposition concentration unproblematic for permanent exposure [3]: 0.1 mg per m3/air
